Tests used:
EP2 = EP2 (Homo sapiens (Human), UniProt P43116); test: hEP2 cAMP assay (SF295 glioblastoma cells, HTRF cAMP); format: cell-based; settings: antagonistic activity
Outline: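 PGE2-driven cAMP accumulation was measured by HTRF in SF295 cells, which express endogenous EP2 only. Cells in assay buffer with 2 mM IBMX were pre-incubated 45 min at RT, then incubated 30 min at RT. Detection used competition between cellular cAMP and d2-cAMP for a cryptate anti-cAMP antibody.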

EP4 = EP4 (Homo sapiens (Human), UniProt P35408); test: hEP4 cAMP assay (BT549 breast cancer cells, HTRF cAMP); format: cell-based; settings: antagonistic activity, PGE2 6 nM
EP4, sequence (P35408 whole entry): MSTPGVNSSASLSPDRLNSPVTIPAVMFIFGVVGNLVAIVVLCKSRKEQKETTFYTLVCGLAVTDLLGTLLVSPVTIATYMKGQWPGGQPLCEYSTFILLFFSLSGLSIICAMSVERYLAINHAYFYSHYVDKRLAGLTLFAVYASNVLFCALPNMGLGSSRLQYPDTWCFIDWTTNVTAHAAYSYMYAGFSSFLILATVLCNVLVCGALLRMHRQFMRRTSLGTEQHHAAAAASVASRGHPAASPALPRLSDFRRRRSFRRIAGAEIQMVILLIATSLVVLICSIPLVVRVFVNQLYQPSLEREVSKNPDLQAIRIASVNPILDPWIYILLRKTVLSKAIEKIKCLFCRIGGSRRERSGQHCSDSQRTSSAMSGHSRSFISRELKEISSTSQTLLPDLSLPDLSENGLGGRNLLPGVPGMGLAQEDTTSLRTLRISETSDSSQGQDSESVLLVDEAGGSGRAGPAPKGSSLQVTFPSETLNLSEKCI
Outline: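 cAMP accumulation quantified by HTRF competition between cellular cAMP and d2-labeled cAMP for cryptate anti-cAMP antibody. Cells: endogenously EP4-expressing BT549, buffer with 2 mM IBMX; 45 min RT compound preincubation preceded 30 min RT challenge with PGE2 at 6 nM final.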

PTGER4 (EP4) = PTGER4 (EP4) (Homo sapiens (Human), UniProt P35408)
PTGER4 (EP4), sequence (P35408 whole entry): as above

PTGER2 (EP2) = PTGER2 (EP2) (Homo sapiens (Human), UniProt P43116); test: hEP2 b-arrestin assay (PathHunter HEK 293 PTGER2 b-arrestin cells); format: cell-based; settings: antagonistic activity, beta-arrestin assay; read-out: hEP2 b-arr IC50
PTGER2 (EP2), sequence (P43116 whole entry): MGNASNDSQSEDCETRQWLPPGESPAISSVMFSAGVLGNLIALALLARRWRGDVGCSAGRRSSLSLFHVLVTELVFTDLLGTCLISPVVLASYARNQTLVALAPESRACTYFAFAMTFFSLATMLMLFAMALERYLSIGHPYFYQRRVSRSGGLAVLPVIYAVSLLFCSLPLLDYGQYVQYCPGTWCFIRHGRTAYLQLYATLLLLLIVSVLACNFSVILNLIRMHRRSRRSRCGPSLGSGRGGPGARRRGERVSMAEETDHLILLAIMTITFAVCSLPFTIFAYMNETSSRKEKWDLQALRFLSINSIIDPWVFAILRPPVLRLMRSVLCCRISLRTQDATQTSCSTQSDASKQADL
Procedure: Plate is pre-incubated 15 minutes at 37° C. Then five microliters of PGE2 (final conc. 5 μM) are transferred into the assay plate. Plate is incubated 120 minutes at 37° C.
(each concentration is measured in duplicate)

EP2, sequence (P43116 whole entry): as above

IC50 (EP2) [nM] | IC50 (EP4) [nM] | IC50 (PTGER4 (EP4)) [nM] | IC50 (PTGER2 (EP2)) [nM] | Compound
79 | 1 | 3 | 113 | CCOc1cc(-c2cc(NCCc3c(C#N)cc4ccccc4c3C)ncn2)sc1C(=O)O [Ex 2]
37 | 4 | 6 | 11 | CCOc1cc(-c2cc(NCCc3cc4c(cc3C#N)OCCO4)ncn2)sc1C(=O)O [Ex 6]
28 | 8 | 12 | 177 | CCOc1cc(-c2cc(NCCc3ccc4c(c3)CCS4)ncn2)sc1C(=O)O [Ex 15]
171 | 9 | 8 | 108 | C#Cc1c(CCNc2cc(-c3cc(OCC)c(C(=O)O)s3)ncn2)ccc2ccccc12 [Ex 17]
11 | 12 | 74 | 27 | CCOc1cc(-c2cc(NCCc3ccc4sccc4c3C)ncn2)sc1C(=O)O [Ex 20]
19 | 14 | 3 | 15 | CCOc1cc2ccccc2cc1CCNc1cc(-c2cc(OCC)c(C(=O)O)s2)ncn1 [Ex 23]
98 | 22 | 16 | 96 | COc1cc2ccccc2c(F)c1CCNc1cc(-c2ccc(C(=O)O)c(OC3CCC3)c2)ncn1 [Ex 25]
19 | 16 | 22 | 19 | CCOc1cc(-c2cc(NCCc3cc4c(cc3OC)OCCO4)ncn2)sc1C(=O)O [Ex 26]
19 | 17 | 16 | 75 | CCOc1cc(-c2cc(NCCc3ccc4scc(C#N)c4c3)ncn2)sc1C(=O)O [Ex 27]
52 | 17 | 33 | 53 | COc1cc2ccccc2c(F)c1CCNc1cc(-c2ccc(C(=O)O)c(SC)c2)ncn1 [Ex 29]
194 | 18 | 23 | 359 | CCOc1cc(-c2cc(NCCc3cc(F)c4c(c3)OCCO4)ncn2)sc1C(=O)O [Ex 35]
43 | 21 | 44 | 54 | CCOc1cc(-c2cc(NCCc3c(F)cc4ncccc4c3F)ncn2)sc1C(=O)O [Ex 43]
185 | 21 | 5 | 127 | CCOc1cc(-c2cc(NCCc3cc4ccccc4cc3OC(F)F)ncn2)sc1C(=O)O [Ex 45]
158 | 25 | 63 | 318 | CSc1cc(-c2cc(NCCc3c(C#N)cc4ccccc4c3C)ncn2)ccc1C(=O)O [Ex 52]
12 | 25 | 12 | 5 | CCOc1cc2sccc2cc1CCNc1cc(-c2ccc(OCC(=O)O)c(OCC)c2)ncn1 [Ex 53]
18 | 30 | 94 | 37 | COc1cc2ccccc2c(C)c1CCNc1cc(-c2ccc(C(=O)O)c(SC)c2)ncn1 [Ex 59]
214 | 46 | 28 | 148 | CCOc1cc(-c2cc(NCCc3c(OC)cc4ccccc4c3C)ncn2)ccc1CC(=O)O [Ex 61]
12 | 33 | 50 | 16 | COc1cc2sccc2cc1CCNc1cc(-c2ccc(C(=O)O)c(OC3CCC3)c2)ncn1 [Ex 63]
28 | 33 | 41 | 25 | CCOc1cc(-c2cc(NCCc3cc4c(cc3C#N)OCO4)ncn2)sc1C(=O)O [Ex 64]
222 | 38 | 59 | 438 | CCOc1cc(-c2cc(NCCc3ccc4ncccc4c3F)ncn2)sc1C(=O)O [Ex 69]
1770 | 39 | 91 | 809 | CCOc1cc(-c2cc(NCCc3c(C#N)cc4ccccc4c3F)ncn2)ccc1C(=O)O [Ex 73]
25 | 43 | 154 | 47 | CSc1cc(-c2cc(NCCc3cc4ccsc4cc3C#N)ncn2)ccc1C(=O)O [Ex 77]
83 | 44 | 56 | 43 | COc1cc2ccccc2c(C)c1CCNc1cc(-c2ccc(C(=O)O)c(OC3CCC3)c2)ncn1 [Ex 79]
37 | 45 | 32 | 17 | CCOc1cc(-c2cc(NCCc3cc4ccsc4cc3OC)ncn2)ccc1OCC(=O)O [Ex 80]
134 | 51 | 85 | 173 | CCOc1cc(-c2cc(NCCc3cc4cccnc4c(C)c3Cl)ncn2)sc1C(=O)O [Ex 87]

IC50 (EP2) [nM] | IC50 (EP4) [nM] | IC50 (PTGER4 (EP4)) [nM] | IC50 (PTGER2 (EP2)) [nM] | Compound
64 | 53 | 59 | 107 | CCOc1cc(-c2cc(NCCc3ccc4scnc4c3)ncn2)sc1C(=O)O [Ex 88]
528 | 59 | 49 | 423 | CCOc1cc(-c2cc(NCCc3cc(F)c4cc(C)sc4c3OC)ncn2)sc1C(=O)O [Ex 94]
57 | 61 | 92 | 148 | CCOc1cc(-c2cc(NCCc3ccc4sccc4c3)nc(C)n2)sc1C(=O)O [Ex 96]
78 | 63 | 147 | 192 | CSc1cc(-c2cc(NCCc3cc4c(cc3C#N)OCCO4)ncn2)ccc1C(=O)O [Ex 97]
12 | 78 | 101 | 34 | CCOc1cc(-c2cc(NCCc3cc4ccsc4cc3OC)ncn2)ccc1C(=O)O [Ex 109]
222 | 85 | 640 | 222 | CCOc1cc(-c2cc(NCCc3ccc4c(c3)CCO4)ncn2)sc1C(=O)O [Ex 114]
682 | 85 | 53 | 243 | COc1cc2ccccc2c(F)c1CCNc1cc(-c2ccc(CC(=O)O)c(SC)c2)ncn1 [Ex 115]
61 | 88 | 131 | 53 | CCOc1cc(-c2cc(NCCc3cc4cccnc4c(F)c3Cl)ncn2)sc1C(=O)O [Ex 117]
66 | 88 | 74 | 34 | CCOc1cc(-c2cc(NCCc3cc4ccsc4cc3OC)ncn2)ccc1CC(=O)O [Ex 118]
111 | 92 | 61 | 114 | CCOc1cc(-c2cc(NCCc3cc4c(cc3OC)OCCO4)ncn2)ccc1OCC(=O)O [Ex 120]
6 | 101 | 66 | 8 | CCOc1cc2sccc2cc1CCNc1cc(-c2ccc(C(=O)O)c(OCC)c2)ncn1 [Ex 126]
76 | 103 | 192 | 151 | CCOc1cc(-c2cc(NCCc3cc4ccsc4cc3C#N)ncn2)ccc1C(=O)O [Ex 128]
171 | 115 | 172 | 198 | CCOc1cc(-c2cc(NCCc3ccc4sncc4c3)ncn2)sc1C(=O)O [Ex 135]
61 | 120 | 358 | 74 | CSc1cc(-c2cc(NCCc3ccc4c(c3)CCS4)ncn2)ccc1C(=O)O [Ex 138]
115 | 137 | 361 | 258 | CCOc1cc(-c2cc(NCCc3ccc4ncoc4c3)ncn2)sc1C(=O)O [Ex 146]
126 | 141 | 46 | 174 | CCOc1cc(-c2cc(NCCc3ccc4ccccc4c3C)ncn2)sc1CC(=O)O [Ex 148]
93 | 158 | 24 | 35 | CCOc1cc2ccccc2cc1CCNc1cc(-c2ccc(OCC(=O)O)c(OCC)c2)ncn1 [Ex 160]
246 | 158 | 98 | 85 | COc1cc2ccccc2c(C)c1CCNc1cc(-c2ccc(CC(=O)O)c(SC)c2)ncn1 [Ex 163]
149 | 163 | 93 | 269 | CCOc1cc(-c2cc(NCCc3ccc4c(c3)COC4)ncn2)sc1C(=O)O [Ex 164]
94 | 168 | 124 | 241 | O=C(O)c1ccc(-c2cc(NCCc3ccc4c(c3)CCS4)ncn2)cc1OC1CCC1 [Ex 170]
120 | 181 | 62 | 83 | CCOc1cc2ccccc2cc1CCNc1cc(-c2ccc(C(=O)O)c(OC3CCC3)c2)ncn1 [Ex 171]
269 | 90 | 88 | 409 | CCOc1cc(-c2cc(NCCc3cc4ccccc4c(F)c3OC)ncn2)ccc1C(=O)O [Ex 174]
54 | 188 | 164 | 30 | CCOc1cc(-c2cc(NCCc3cc4c(Cl)ccnc4cc3C)ncn2)sc1C(=O)O [Ex 178]
64 | 206 | 144 | 74 | COc1cc2c(cc1CCNc1cc(-c3ccc(C(=O)O)c(OC4CCC4)c3)ncn1)OCCO2 [Ex 187]

— patent publication US11839613B2, “Pyrimidine derivatives as PGE2 receptor modulators” (IDORSIA PHARMACEUTICALS LTD, priority 2017, dated 2023)
